The molecules below were run against T1, Histamine H3 receptor (Rattus norvegicus, UniProt Q9QYN8) (assay: Binding affinity against rat histamine H3 receptor).
T1 sequence (Q9QYN8 whole entry): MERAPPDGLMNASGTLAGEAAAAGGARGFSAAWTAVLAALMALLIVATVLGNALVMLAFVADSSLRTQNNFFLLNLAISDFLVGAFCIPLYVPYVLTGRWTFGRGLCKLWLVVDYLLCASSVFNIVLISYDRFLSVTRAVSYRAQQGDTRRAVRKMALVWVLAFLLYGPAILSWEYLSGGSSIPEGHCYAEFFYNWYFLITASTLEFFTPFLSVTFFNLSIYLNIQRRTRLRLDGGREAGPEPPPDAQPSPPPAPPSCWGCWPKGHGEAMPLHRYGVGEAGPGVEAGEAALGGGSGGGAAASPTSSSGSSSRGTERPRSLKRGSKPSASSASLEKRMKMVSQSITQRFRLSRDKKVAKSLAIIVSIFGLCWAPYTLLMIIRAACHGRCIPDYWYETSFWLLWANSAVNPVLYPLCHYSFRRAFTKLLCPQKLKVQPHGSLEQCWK

SMILES | Ki [nM]
CC(=O)c1ccc(OCCCN2CC[C@H](NC(=O)[C@H](C)NC(=O)OC(C)(C)C)C2)cc1 | 901
CC(C)(C)OC(=O)NCCC(=O)N1C[C@@H]2C[C@H]1CN2CCCOc1ccc(C(=O)C2CC2)cc1 | 71
CC(=O)c1ccc(OCCCN2CC[C@H](NS(=O)(=O)c3ccc(C#N)cc3)C2)cc1 | 6
O=C(c1ccc(OCCCN2CC[C@H](NS(=O)(=O)c3ccc(F)cc3)C2)cc1)C1CC1 | 3.5
Cc1cccc(S(=O)(=O)N[C@H]2CCN(CCCOc3ccc(C(=O)C4CC4)cc3)C2)c1 | 2.7
CC(=O)c1ccc(OCCCN2CC[C@H](NC(=O)c3ccc(C#N)cc3)C2)cc1 | 40
C[C@H](NC(=O)N1C[C@@H]2C[C@H]1CN2CCCOc1ccc(C(=O)C2CC2)cc1)C(=O)O | 232
C[C@@H](NC(=O)N1C[C@@H]2C[C@H]1CN2CCCOc1ccc(C(=O)C2CC2)cc1)C(=O)O | 413
O=C(c1ccc(OCCCN2CC[C@H](NS(=O)(=O)c3ccc(Br)cc3)C2)cc1)C1CC1 | 5
Cn1cnc(S(=O)(=O)N[C@H]2CCN(CCCOc3ccc(C(=O)C4CC4)cc3)C2)c1 | 10
CC(=O)c1ccc(OCCCN2CC[C@H](NC(=O)[C@@H](CO)NC(=O)OC(C)(C)C)C2)cc1 | 310
CC(=O)c1ccc(OCCCN2CC[C@H](NC(=O)[C@H](CO)NC(=O)OC(C)(C)C)C2)cc1 | 587
CCc1ccc(S(=O)(=O)N[C@H]2CCN(CCCOc3ccc(C(=O)C4CC4)cc3)C2)cc1 | 4.6
CCS(=O)(=O)N1C[C@@H]2C[C@H]1CN2CCCOc1ccc(C(=O)C2CC2)cc1 | 120
O=C(c1ccc(OCCCN2C[C@@H]3C[C@H]2CN3C(=O)c2ccc(F)cc2)cc1)C1CC1 | 258
O=C(c1ccc(OCCCN2C[C@@H]3C[C@H]2CN3C(=O)c2ccccn2)cc1)C1CC1 | 191
CC(=O)c1ccc(OCCCN2CC[C@H](NC(=O)[C@@H](N)CO)C2)cc1 | 151
CC(=O)c1ccc(OCCCN2CC[C@H](NC(=O)[C@@H](C)NC(=O)OC(C)(C)C)C2)cc1 | 307
O=C(c1ccc(OCCCN2CC[C@H](NS(=O)(=O)c3ccc(Cl)cc3)C2)cc1)C1CC1 | 3.8

SMILES | Ki [nM]
N#Cc1cccc(S(=O)(=O)N[C@H]2CCN(CCCOc3ccc(C(=O)C4CC4)cc3)C2)c1 | 2.8
O=C(N[C@H]1CCN(CCCOc2ccc(C(=O)C3CC3)cc2)C1)c1csc(-c2cccnc2)n1 | 50
O=C(c1ccc(OCCCN2CC[C@H](NS(=O)(=O)c3ccccc3F)C2)cc1)C1CC1 | 2.7
O=C(c1ccc(OCCCN2C[C@@H]3C[C@H]2CN3S(=O)(=O)c2ccccc2)cc1)C1CC1 | 19
O=C(c1ccc(OCCCN2C[C@@H]3C[C@H]2CN3C(=O)c2ccco2)cc1)C1CC1 | 208
N#Cc1ccccc1S(=O)(=O)N[C@H]1CCN(CCCOc2ccc(C(=O)C3CC3)cc2)C1 | 11
O=C(c1ccc(OCCCN2C[C@@H]3C[C@H]2CN3C(=O)C2CCCCC2)cc1)C1CC1 | 134
N#Cc1ccc(S(=O)(=O)N[C@H]2CCN(CCCOc3ccc(C(=O)C4CC4)cc3)C2)cc1 | 4
O=C(c1ccc(OCCCN2CC[C@H](NS(=O)(=O)c3cccc(Cl)c3)C2)cc1)C1CC1 | 3
O=C(c1ccc(OCCCN2CC[C@H](NS(=O)(=O)c3ccccc3)C2)cc1)C1CC1 | 3
O=C(O)CCNC(=O)N1C[C@@H]2C[C@H]1CN2CCCOc1ccc(C(=O)C2CC2)cc1 | 17
COc1ccc(S(=O)(=O)N[C@H]2CCN(CCCOc3ccc(C(=O)C4CC4)cc3)C2)cc1 | 2.9
Cc1ccc(S(=O)(=O)N[C@H]2CCN(CCCOc3ccc(C(=O)C4CC4)cc3)C2)cc1 | 4.2
O=C(c1ccc(OCCCN2C[C@@H]3C[C@H]2CN3C(=O)c2ccccc2)cc1)C1CC1 | 344
CC(=O)c1ccc(OCCCN2CC[C@H](NC(=O)c3cnccn3)C2)cc1 | 202
CC(=O)c1ccc(OCCCN2CC[C@H](NC(=O)c3csc(-c4cccnc4)n3)C2)cc1 | 55
O=C(c1ccc(OCCCN2CC[C@H](NS(=O)(=O)c3cccc(F)c3)C2)cc1)C1CC1 | 1.6
CC(C)(C)c1ccc(S(=O)(=O)N[C@H]2CCN(CCCOc3ccc(C(=O)C4CC4)cc3)C2)cc1 | 5.2
Cc1ccccc1S(=O)(=O)N[C@H]1CCN(CCCOc2ccc(C(=O)C3CC3)cc2)C1 | 11

These molecules were tested against T1, Histamine H3 receptor (assay: Binding affinity towards rat Histamine H3 receptor (For compound 11)).

SMILES | Ki [nM]
CC(=O)c1ccc(OCCCN2CC[C@H](N)C2)cc1 | 676

What follows are molecules tested against T2, Histamine H1 receptor (Homo sapiens, UniProt P35367) (assay: Binding affinity towards human Histamine H1 receptor (For compound 11)).
T2 sequence (P35367 whole entry): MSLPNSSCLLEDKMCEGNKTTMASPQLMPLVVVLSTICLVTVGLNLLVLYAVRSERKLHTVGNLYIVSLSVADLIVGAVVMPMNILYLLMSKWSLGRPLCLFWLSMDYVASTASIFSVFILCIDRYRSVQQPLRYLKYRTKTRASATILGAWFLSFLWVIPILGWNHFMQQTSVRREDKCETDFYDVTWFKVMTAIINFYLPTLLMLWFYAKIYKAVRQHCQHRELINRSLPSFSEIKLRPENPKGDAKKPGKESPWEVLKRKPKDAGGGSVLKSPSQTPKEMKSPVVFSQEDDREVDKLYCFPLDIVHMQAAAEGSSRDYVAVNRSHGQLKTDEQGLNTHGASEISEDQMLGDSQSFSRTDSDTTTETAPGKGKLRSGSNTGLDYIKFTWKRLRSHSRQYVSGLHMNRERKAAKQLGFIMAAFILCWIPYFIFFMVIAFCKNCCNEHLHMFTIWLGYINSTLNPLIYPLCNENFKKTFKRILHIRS

SMILES | Ki [nM]
CC(=O)c1ccc(OCCCN2CC[C@H](N)C2)cc1 | 100000

These molecules were tested against T2, Histamine H1 receptor (assay: Binding affinity to the human Histamine H1 receptor).

SMILES | Ki [nM]
CC(=O)c1ccc(OCCCN2CC[C@H](NC(=O)[C@H](C)NC(=O)OC(C)(C)C)C2)cc1 | 60000
CC(=O)c1ccc(OCCCN2CC[C@H](NS(=O)(=O)c3ccc(C#N)cc3)C2)cc1 | 14000
CC(=O)c1ccc(OCCCN2CC[C@H](N)C2)cc1 | 90000
O=C(c1ccc(OCCCN2CC[C@H](NS(=O)(=O)c3ccc(F)cc3)C2)cc1)C1CC1 | 9200
Cc1cccc(S(=O)(=O)N[C@H]2CCN(CCCOc3ccc(C(=O)C4CC4)cc3)C2)c1 | 6600
CC(=O)c1ccc(OCCCN2CC[C@H](NC(=O)c3ccc(C#N)cc3)C2)cc1 | 13000
O=C(c1ccc(OCCCN2CC[C@H](NS(=O)(=O)c3ccc(Br)cc3)C2)cc1)C1CC1 | 1500
Cn1cnc(S(=O)(=O)N[C@H]2CCN(CCCOc3ccc(C(=O)C4CC4)cc3)C2)c1 | 91000
CC(=O)c1ccc(OCCCN2CC[C@H](NC(=O)[C@@H](CO)NC(=O)OC(C)(C)C)C2)cc1 | 80000
CC(=O)c1ccc(OCCCN2CC[C@H](NC(=O)[C@H](CO)NC(=O)OC(C)(C)C)C2)cc1 | 75000
CCc1ccc(S(=O)(=O)N[C@H]2CCN(CCCOc3ccc(C(=O)C4CC4)cc3)C2)cc1 | 2300
CC(=O)c1ccc(OCCCN2CC[C@H](NC(=O)[C@@H](N)CO)C2)cc1 | 43000
CC(=O)c1ccc(OCCCN2CC[C@H](NC(=O)[C@@H](C)NC(=O)OC(C)(C)C)C2)cc1 | 56000
O=C(c1ccc(OCCCN2CC[C@H](NS(=O)(=O)c3ccc(Cl)cc3)C2)cc1)C1CC1 | 2500
N#Cc1cccc(S(=O)(=O)N[C@H]2CCN(CCCOc3ccc(C(=O)C4CC4)cc3)C2)c1 | 8900
O=C(N[C@H]1CCN(CCCOc2ccc(C(=O)C3CC3)cc2)C1)c1csc(-c2cccnc2)n1 | 37000
O=C(c1ccc(OCCCN2CC[C@H](NS(=O)(=O)c3ccccc3F)C2)cc1)C1CC1 | 9400
O=C(c1ccc(OCCCN2CC[C@H](NS(=O)(=O)c3ccccc3Cl)C2)cc1)C1CC1 | 4500
N#Cc1ccccc1S(=O)(=O)N[C@H]1CCN(CCCOc2ccc(C(=O)C3CC3)cc2)C1 | 6200
N#Cc1ccc(S(=O)(=O)N[C@H]2CCN(CCCOc3ccc(C(=O)C4CC4)cc3)C2)cc1 | 20000
O=C(c1ccc(OCCCN2CC[C@H](NS(=O)(=O)c3cccc(Cl)c3)C2)cc1)C1CC1 | 3600
O=C(c1ccc(OCCCN2CC[C@H](NS(=O)(=O)c3ccccc3)C2)cc1)C1CC1 | 9100
COc1ccc(S(=O)(=O)N[C@H]2CCN(CCCOc3ccc(C(=O)C4CC4)cc3)C2)cc1 | 4400
Cc1ccc(S(=O)(=O)N[C@H]2CCN(CCCOc3ccc(C(=O)C4CC4)cc3)C2)cc1 | 5500
CC(=O)c1ccc(OCCCN2CC[C@H](NC(=O)c3cnccn3)C2)cc1 | 10000
CC(=O)c1ccc(OCCCN2CC[C@H](NC(=O)c3csc(-c4cccnc4)n3)C2)cc1 | 11000
CC(=O)c1ccc(OCCCN2CC[C@H](NC(=O)c3cccnc3)C2)cc1 | 7400
O=C(c1ccc(OCCCN2CC[C@H](NS(=O)(=O)c3cccc(F)c3)C2)cc1)C1CC1 | 5900
CC(C)(C)c1ccc(S(=O)(=O)N[C@H]2CCN(CCCOc3ccc(C(=O)C4CC4)cc3)C2)cc1 | 2300
Cc1ccccc1S(=O)(=O)N[C@H]1CCN(CCCOc2ccc(C(=O)C3CC3)cc2)C1 | 16000

These molecules were tested against T3, Histamine H2 receptor (Homo sapiens, UniProt P25021) (assay: Binding affinity towards human Histamine H2 receptor (For compound 11)).
T3 sequence (P25021 whole entry): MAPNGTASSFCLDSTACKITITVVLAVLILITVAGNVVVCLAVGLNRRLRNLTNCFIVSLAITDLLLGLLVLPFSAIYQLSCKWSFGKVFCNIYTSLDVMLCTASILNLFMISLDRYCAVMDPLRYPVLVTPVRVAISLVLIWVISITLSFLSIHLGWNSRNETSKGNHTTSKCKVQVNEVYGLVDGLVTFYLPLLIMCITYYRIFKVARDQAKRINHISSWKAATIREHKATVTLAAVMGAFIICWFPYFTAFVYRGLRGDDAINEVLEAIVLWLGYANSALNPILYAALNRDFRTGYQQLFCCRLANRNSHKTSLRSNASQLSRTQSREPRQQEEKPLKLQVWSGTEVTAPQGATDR

SMILES | Ki [nM]
CC(=O)c1ccc(OCCCN2CC[C@H](N)C2)cc1 | 31000

The molecules below were run against T3, Histamine H2 receptor (assay: Binding affinity to the human Histamine H2 receptor).

SMILES | Ki [nM]
CC(=O)c1ccc(OCCCN2CC[C@H](NC(=O)[C@H](C)NC(=O)OC(C)(C)C)C2)cc1 | 24000
CC(=O)c1ccc(OCCCN2CC[C@H](NS(=O)(=O)c3ccc(C#N)cc3)C2)cc1 | 2300
CC(=O)c1ccc(OCCCN2CC[C@H](N)C2)cc1 | 50000
O=C(c1ccc(OCCCN2CC[C@H](NS(=O)(=O)c3ccc(F)cc3)C2)cc1)C1CC1 | 500
Cc1cccc(S(=O)(=O)N[C@H]2CCN(CCCOc3ccc(C(=O)C4CC4)cc3)C2)c1 | 1800
CC(=O)c1ccc(OCCCN2CC[C@H](NC(=O)c3ccc(C#N)cc3)C2)cc1 | 6100
O=C(c1ccc(OCCCN2CC[C@H](NS(=O)(=O)c3ccc(Br)cc3)C2)cc1)C1CC1 | 290
Cn1cnc(S(=O)(=O)N[C@H]2CCN(CCCOc3ccc(C(=O)C4CC4)cc3)C2)c1 | 7100
CC(=O)c1ccc(OCCCN2CC[C@H](NC(=O)[C@@H](CO)NC(=O)OC(C)(C)C)C2)cc1 | 100000
CC(=O)c1ccc(OCCCN2CC[C@H](NC(=O)[C@H](CO)NC(=O)OC(C)(C)C)C2)cc1 | 46000
CCc1ccc(S(=O)(=O)N[C@H]2CCN(CCCOc3ccc(C(=O)C4CC4)cc3)C2)cc1 | 330
CC(=O)c1ccc(OCCCN2CC[C@H](NC(=O)[C@@H](N)CO)C2)cc1 | 22000
CC(=O)c1ccc(OCCCN2CC[C@H](NC(=O)[C@@H](C)NC(=O)OC(C)(C)C)C2)cc1 | 40000
O=C(c1ccc(OCCCN2CC[C@H](NS(=O)(=O)c3ccc(Cl)cc3)C2)cc1)C1CC1 | 290
N#Cc1cccc(S(=O)(=O)N[C@H]2CCN(CCCOc3ccc(C(=O)C4CC4)cc3)C2)c1 | 900
O=C(N[C@H]1CCN(CCCOc2ccc(C(=O)C3CC3)cc2)C1)c1csc(-c2cccnc2)n1 | 4000
O=C(c1ccc(OCCCN2CC[C@H](NS(=O)(=O)c3ccccc3F)C2)cc1)C1CC1 | 1550
O=C(c1ccc(OCCCN2CC[C@H](NS(=O)(=O)c3ccccc3Cl)C2)cc1)C1CC1 | 1000
N#Cc1ccccc1S(=O)(=O)N[C@H]1CCN(CCCOc2ccc(C(=O)C3CC3)cc2)C1 | 710
N#Cc1ccc(S(=O)(=O)N[C@H]2CCN(CCCOc3ccc(C(=O)C4CC4)cc3)C2)cc1 | 1600
O=C(c1ccc(OCCCN2CC[C@H](NS(=O)(=O)c3cccc(Cl)c3)C2)cc1)C1CC1 | 700
O=C(c1ccc(OCCCN2CC[C@H](NS(=O)(=O)c3ccccc3)C2)cc1)C1CC1 | 1200
COc1ccc(S(=O)(=O)N[C@H]2CCN(CCCOc3ccc(C(=O)C4CC4)cc3)C2)cc1 | 1000
Cc1ccc(S(=O)(=O)N[C@H]2CCN(CCCOc3ccc(C(=O)C4CC4)cc3)C2)cc1 | 380
CC(=O)c1ccc(OCCCN2CC[C@H](NC(=O)c3cnccn3)C2)cc1 | 5000
CC(=O)c1ccc(OCCCN2CC[C@H](NC(=O)c3csc(-c4cccnc4)n3)C2)cc1 | 6200
CC(=O)c1ccc(OCCCN2CC[C@H](NC(=O)c3cccnc3)C2)cc1 | 3500
O=C(c1ccc(OCCCN2CC[C@H](NS(=O)(=O)c3cccc(F)c3)C2)cc1)C1CC1 | 1600
CC(C)(C)c1ccc(S(=O)(=O)N[C@H]2CCN(CCCOc3ccc(C(=O)C4CC4)cc3)C2)cc1 | 730
Cc1ccccc1S(=O)(=O)N[C@H]1CCN(CCCOc2ccc(C(=O)C3CC3)cc2)C1 | 2200

These molecules were tested against T1, Histamine H3 receptor (assay: Binding affinity towards rats Histamine type 3 (H3) receptor).

SMILES | Ki [nM]
CCCCCC(=O)c1ccc(OCCCN2CCN(C(=O)OCC)CC2)cc1 | 2
